From EP0024348A1, “Substituted 6-Phenethyl-and phenylethenyl-3,4,5,6-tetrahydro-4-hydroxytetraydropyran-2-ones in the4-R trans stereoisomeric forms and the corresponding dihydroxy acids, process for preparing and pharmaceutical composition comprising them” (Merck & Co., Inc., priority 1979, dated 1981)
pIC50: −log10 of the molar value. Structures can show the parent of a compound that is named as a salt.

Target: T1, 3-hydroxy-3-methylglutaryl coenzyme A reductase (Rattus norvegicus, UniProt P51639)
T1 sequence (P51639 1-887): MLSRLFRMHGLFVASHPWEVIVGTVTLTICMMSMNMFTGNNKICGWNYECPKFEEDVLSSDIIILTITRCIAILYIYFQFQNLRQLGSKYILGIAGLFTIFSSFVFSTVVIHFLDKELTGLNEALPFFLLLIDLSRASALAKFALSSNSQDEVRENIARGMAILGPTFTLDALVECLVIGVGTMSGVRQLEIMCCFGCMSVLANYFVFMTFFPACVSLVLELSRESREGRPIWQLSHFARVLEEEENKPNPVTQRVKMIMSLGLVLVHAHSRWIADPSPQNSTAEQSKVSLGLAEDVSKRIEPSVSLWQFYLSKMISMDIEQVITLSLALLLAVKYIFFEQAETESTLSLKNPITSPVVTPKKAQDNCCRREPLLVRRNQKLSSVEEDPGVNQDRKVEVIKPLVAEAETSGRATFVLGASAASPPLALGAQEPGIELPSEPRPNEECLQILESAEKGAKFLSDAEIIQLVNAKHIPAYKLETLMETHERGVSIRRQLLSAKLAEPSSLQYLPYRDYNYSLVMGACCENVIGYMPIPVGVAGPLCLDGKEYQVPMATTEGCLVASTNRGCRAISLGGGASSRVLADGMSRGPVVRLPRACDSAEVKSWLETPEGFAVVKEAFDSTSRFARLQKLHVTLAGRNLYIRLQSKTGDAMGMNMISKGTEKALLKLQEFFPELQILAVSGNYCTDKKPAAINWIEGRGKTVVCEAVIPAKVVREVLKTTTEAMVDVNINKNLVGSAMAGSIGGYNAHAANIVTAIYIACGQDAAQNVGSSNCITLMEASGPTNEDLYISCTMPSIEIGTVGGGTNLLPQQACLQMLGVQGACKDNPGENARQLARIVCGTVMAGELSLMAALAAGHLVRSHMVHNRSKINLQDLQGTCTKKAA
Experiment: Method A: in vitro enzyme inhibition by the method of Knauss et al.
Format: biochemical
Description: The inhibitory activity of these compounds for the biosynthesis of cholesterol has been measured by two methods. The experimental method A has been realized in vitro by the method of H. J. Knauss, et al., J. Biol. Chem., 234, 2835 (1959) and the activity was expressed as the molar concentration IC50(M) necessary for the inhibition of 50% of the enzymatic activity. The experimental method B was the method of A. A. Kandutsch, et al., J. Biol. Chem., 248, 8403 (1973) for measuring the quantity of ^14C-cholesterol biosynthesis from acetic acid-^14C in mouse L cells. The activity is expressed for inhibition of 50% of the biosynthesis of cholesterol.

| pIC50 (test by method A) | potency compared with compactin (both tested as the sodium salts of their corresponding hydroxy acid forms) | pIC50 (tested as the sodium salts of their corresponding hydroxy acid forms, method not restated) | Compound |
| --- | --- | --- | --- |
| 7.17 |  |  | O=C1C[C@H](O)C[C@@H](CCc2c(Cl)cc(Cl)cc2OCc2ccccc2)O1 (single isomer, unassigned) [Example 14, (+)-Trans-6-[2-(2,4-dichloro-6-phenylmethoxyphenyl)ethyl]-3,4,5,6-tetrahydro-4-hydroxy-2H-pyran-2-one] |
|  | greater than that of compactin | ~8.55 | O=C(O)C[C@H](O)C[C@H](O)/C=C/c1c(Cl)cc(Cl)cc1-c1ccc(F)cc1 (single isomer, unassigned) [Example 38, (+)-(E)-(3R*, 5S*)-7-(3,5-dichloro-4'-fluoro[1,1'-biphenyl]-2y1)-3,5-dihydroxy-6-heptenoic acid, ammonium salt] |
